Here are results for 14 molecules from patent publication EP4752140A1, “SPIROCYCLICALKENYL OR AZAALKENYL COMPOUND, AND PHARMACEUTICAL COMPOSITION THEREOF, PREPARATION METHOD THEREFOR AND USE THEREOF” (Shanghai Meiyue Biotech Development Co., Ltd., priority 2023, dated 2025).

Broadly, the IC50 is the concentration at which inhibition is half-maximal.

In one data set the test system is normal human serum (NHS). Description: Complement-mediated hemolytic activity assay. It counts as cell-based. The settings on record: Erythrocyte, lysis of rabbit erythrocytes (RE) by NHS, GVB0 buffer with 10 mM Mg-EGTA, 37°C, read-out: Hemolysis IC50. The protocol: The hemolysis assay was performed with reference to the method described in Xuan Yuan et al., Haematologica. (2017) 102: 466-475. Prior to the assay, the optimal concentration of normal human serum (NHS) required to achieve 100% lysis of rabbit erythrocytes (RE) was determined by titration. In this assay, NHS (collected from healthy volunteers) was diluted in GVB^0 buffer containing 10 mM Mg-EGTA (0.1% gelatin, 5 mM Veronal, 145 mM NaCl, 0.025% NaN3, pH 7.3, Complement Technology) and incubated with various concentrations of test compounds at 37°C for 15 minutes. RE (collected from healthy Japanese white rabbits), freshly suspended in GVB^0 buffer containing 10 mM Mg-EGTA, were then added to achieve a final concentration of 1 × 10^8 cells/mL and incubated at 37°C for 30 minutes. The positive control group (100% lysis) consisted of GVB^0 buffer containing 10 mM Mg-EGTA with NHS and RE but without test compounds. The negative control group (0% lysis) consisted of GVB^0 buffer containing 10 mM Mg-EGTA with inactivated NHS (heated at 56°C for 30 minutes or 65°C for 5 minutes) and RE but without test compounds. After centrifugation of the samples at 2000 g for 5 minutes, the supernatant was collected. Absorbance at 415 nm (A415) was measured using a microplate reader (Molecular Devices, SpectraMax i3X). IC50 values were calculated by nonlinear regression from the percentage of hemolysis as a function of test compound concentration.

Data set [1] is described as follows: Single-dose PK study in rats. It is filed as in vivo. The settings on record: male SD rats, oral gavage 3 mg/kg, plasma; for half-life: read-out: Half-life T1/2 (converted); for Cmax: read-out: Maximum plasma concentration Cmax. The method, then:
(§1) Male SD rats (Shanghai Bikai Keyi Biotechnology Co. Ltd.) aged 6 to 9 weeks were fasted overnight. Three […] per group were administered the test compounds by oral gavage at a dosing volume of 10 mL/kg. Blood samples (0.2 mL per time point) were collected via the jugular vein into EDTA-K2 anticoagulant tubes and immediately centrifuged at 4000 rpm for 5 minutes at 4°C. The supernatants were collected. Blood samples were collected at the following time points: 15 minutes, 30 minutes, 1 hour, 2 hours, 4 hours, 7 hours, and 24 hours. The animals were continuously monitored for general condition after dosing. After completion of blood collection at all time points, the animals were euthanized. Plasma samples were analyzed by LC-MS/MS, and pharmacokinetic parameters were calculated using WinNonlin software.

Data set [2] relates to Alternative Pathway of the Human Serum Complement System. The data set can be described thus: Inhibitory effect on the alternative pathway of the human serum complement system (Wieslab kit). It counts as biochemical. The settings on record: complement activity, OD405, LPS-coated plate. The method, then: Test compounds were evaluated starting at a concentration of 10 µM, with 3-fold serial dilutions across 8 concentration points. The final concentration of DMSO was 0.1%, and all measurements were performed in duplicate. A vial of human serum (Complement Technology, NHS) was removed from a -80°C ultra-low temperature freezer and allowed to thaw completely on ice. […] The plate was gently mixed on a microplate thermoshaker and incubated at room temperature for 15 minutes. Subsequently, 100 µL of the above mixture was carefully transferred to the pre-coated (LPS-containing) plate provided in the kit (WIESLAB® Complement System Alternative Pathway, AP330RUO). Additionally, 100 µL of Diluent AP was used as a blank control to avoid bubble formation. The plate was incubated at 37°C for 65 minutes. After incubation, the liquid in the wells was discarded, and the plate was washed with 1× wash buffer (300 µL/well) four times, with the liquid being removed as thoroughly as possible from the plate after the final wash. 100 µL of conjugate was added to each well, and the plate was incubated at room temperature (20 to 25°C) for 30 minutes, followed by repetition of the washing step. 100 µL of substrate solution was then added to each well, and the plate was incubated at room temperature (20 to 25°C) for 30 minutes in the dark. The OD405 value was read immediately, or the reaction was terminated by addition of 5 mM EDTA, and the OD405 value was read within 60 minutes. Complement activity was calculated according to the formula: % complement activity = (Sample - NC) / (PC - NC) × 100, and data analysis was performed.

Data set [3] can be described thus: Single-dose PK study in mice. The settings on record: mouse, in vivo, male ICR mice, oral gavage 10 mg/kg, plasma. The protocol:
as §1, with “ICR mice” for “SD rats”, “Co.,” for “Co.”, “weighing approximately 25 g” for “aged 6 to 9 weeks”, “(30 µL” for “(0.2 mL”, “orbital sinus” for “jugular vein”

Setting [4] is: rat, read-out: Area under the curve AUC0-24h.
Setting [5] is: rat, in vivo, read-out: Area under the curve AUC0-24h.

Consider `COc1cc(Cl)c2[nH]ccc2c1CN1CC[C@H](C=C(F)F)C[C@H]1c1ccc(C(=O)O)cc1` [Compound 38-P1], for which the IC50 in the data set on normal human serum (NHS) was 139 nM.

Consider `COc1cc(C)c2[nH]ccc2c1CN1CC[C@H](C=C2CC2)C[C@H]1c1ccc(C(=O)O)cc1` [Compound 41-P1], for which the half-maximal inhibitory concentration (IC50) with normal human serum (NHS) stood at 34.8 nM.

`COc1cc(C)c2[nH]ccc2c1CN1CC[C@H](C=C(F)F)C[C@H]1c1ccc(C(=O)O)c(O)c1` [Compound 40-P1]: the IC50 in the data set on normal human serum (NHS) stood at 21.8 nM.

For the molecule `COc1cc(C)c2[nH]ccc2c1CN1CCC(=C(F)F)C[C@H]1c1ccc(C(=O)O)cc1` [Compound 19], the concentration for half-maximal inhibition (IC50) in the data set with normal human serum (NHS) amounted to 2790 nM.

On to `COc1cc(C)c2[nH]ccc2c1CN1CC[C@H](C=C(F)F)C[C@H]1c1ccc(C(=O)O)cc1` [Compound 32-P1], for which the AUC(0-t) at 24 h in data set [1] (setting [4]) worked out at 17600 ng·h/mL. Moreover, in data set [1] (rat), the half-life was 13.2 h and the Cmax was found to be 1290 ng/mL. Further, in the data set on normal human serum (NHS), the 50% inhibitory concentration (IC50) was 94.2 nM. In data set [2], this molecule gave an IC50 of 47.3 nM.

As to `[2H]C([2H])([2H])Oc1cc(C)c2[nH]ccc2c1CN1CC[C@H](C=C(F)F)C[C@H]1c1ccc(C(=O)O)cc1` [Compound 39-P1], the AUC(0-t) at 24 h in data set [1] (setting [4]) was 13300 ng·h/mL. In data set [1] (rat), the half-life was 9.44 h and the Cmax was found to be 1280 ng/mL. Moreover, the half-maximal inhibitory concentration (IC50) with normal human serum (NHS) was 113 nM.

Regarding `COc1cc([C@@H]2C[C@@H](C=C(F)F)CCN2Cc2c(OC)cc(C)c3[nH]ccc23)ccc1C(=O)O` [Compound 36-P1], in data set [1] (setting [5]), the AUC(0-t) at 24 h amounted to 4500 ng·h/mL. Besides, in data set [1] (rat, in vivo), the half-life was 8.29 h and the Cmax was found to be 667 ng/mL. Also, the IC50 in the data set with normal human serum (NHS) came out at 44 nM.

Take `COc1cc(C)c2[nH]ccc2c1CN1CCC2(CC(=C(F)F)C2)C[C@H]1c1ccc(C(=O)O)cc1` (some centres unmarked) [Compound 1]: the AUC(0-t) at 24 h in data set [1] (setting [5]) turned out to be 8320 ng·h/mL; in data set [3] (read-out: Area under the curve AUC0-24h), 9230 ng·h/mL. For the same molecule, the half-life in data set [1] (rat, in vivo) is 11.3 h; in data set [3] (read-out: Half-life T1/2 (converted)) it was 13.1 h. Further, the Cmax in data set [1] (rat, in vivo) stood at 720 ng/mL; in data set [3] (read-out: Maximum plasma concentration Cmax), 1530 ng/mL. Further, the half-maximal inhibitory concentration (IC50) was 86.2 nM with normal human serum (NHS) and 53.2 nM in data set [2].

For the molecule `COc1cc(C)c2[nH]ccc2c1CN1CCC(C=C(F)F)C[C@H]1c1ccc(C(=O)O)cc1Cl` (some centres unmarked) [Compound 34-1], in the data set with normal human serum (NHS), the 50% inhibitory concentration (IC50) was 61.6 nM.

Take `CCO[C@H]1CCN(Cc2c(OC)cc(C)c3[nH]ccc23)[C@H](c2ccc(C(=O)O)cc2)C1` [Comparative Example 1, reference compound]: in data set [1], the “Clearance CL” value was found to be 13.549 mL/min/kg. Further, in data set [1] (setting [4]), the AUC(0-t) is 3660 ng·h/mL. In addition, in data set [1] (rat), the half-life is 3.38 h and the Cmax is 714 ng/mL.

With `COc1cc(C)c2[nH]ccc2c1CN1CC[C@H](C=C(F)F)C[C@H]1c1ccc(C(=O)O)cc1C` (single isomer, unassigned) [Compound 33-P1], in data set [1] (setting [5]), the AUC(0-t) at 24 h turned out to be 10700 ng·h/mL. Also, in data set [1] (rat, in vivo), the half-life is 11.2 h and the Cmax came to 1240 ng/mL. Moreover, the IC50 in the data set on normal human serum (NHS) came to 82.2 nM. In data set [2], half-maximal inhibition (IC50) required 50.4 nM.

With `COc1cc(C)c2[nH]ccc2c1CN1CC[C@H](C=C(F)F)C[C@H]1c1ccc(C(=O)O)c(Cl)c1` [Compound 35-P1], the IC50 with normal human serum (NHS) worked out at 61.5 nM.

For `Cc1cc(C2CC2)c(CN2CC[C@H](C=C(F)F)C[C@H]2c2ccc(C(=O)O)cc2)c2cc[nH]c12` [Compound 60-P1], the half-maximal inhibitory concentration (IC50) in the data set with normal human serum (NHS) is 116 nM.

`Cc1cc(C)c2[nH]ccc2c1CN1CC[C@H](C=C(F)F)C[C@H]1c1ccc(C(=O)O)cc1` [Compound 37-P1]: the IC50 in the data set with normal human serum (NHS) was 20.7 nM.
